The text below walks through data of patent EP0181578B1, “Antibiotic polypeptide, process for its preparation and its use” (Dr. Karl Thomae GmbH, priority 1984, dated 1991).

Data set [1] relates to Staphylococcus epidermidis DSM 3095. The data set is described as follows: Resistance and sensitivity of the producer strain (strain characterisation, adaptation to rising Epidermin concentrations). Conditions: for Sonstige Resistenzen: in Flüssigkultur, marked resistance. In kind it is cell-based. The source says: Der zur Herstellung von Epidermin verwendete Stamm wird nach Schleifer & Kloos (Int. J. Syst. Bact. 25, 50-61 (1975)) wie folgt charakterisiert: Gramfärbung : positiv Zellgröße : Durchmesser 0,5-0,8 µm Koloniengröße : ca. 1 mm Durchmesser Aussehen der Kolonien : glatt, glänzend, in der Mitte leicht erhöht Kolonienfarbe : gräulich - weiß Zellen in Kultur : oft Einzelzellen oder Zweier-Pakete, selten größere Haufen Hämolyse : auf Blutplatten ausgestrichene Kulturen zeigten starke Hämolyse Anaerobes Wachstum : der Stamm wächst auch unter anaeroben Bedingungen Lysozymempfindlichkeit: : die Zellen sind bis 2 mg/ml resistent gegen Lysozym Lysostaphinempfindlichkeit : die Zellen sind schon bei 20 µg/ml sensitiv für Lysostaphin Epidermin-Resistenz : bis 1 mg/ml nachgewiesen Sonstige Resistenzen : in Flüssigkultur zeigt der Stamm eine ausgeprägte Resistenz gegenüber Streptomycin (bis 1 mg/ml) und Spectinomycin (0,5 mg/ml) Erhöhter NaCl-Gehalt : Der Stamm wächst noch gut bis 15% Gew.-% Natriumchlorid.
(§1) Der neue Klon DSM 3095 wurde wie folgt gewonnen: Die Adaption wurde in 100 ml Erlenmeyerkölbchen mit einem seitlichen Einstich und 10 ml Nährlösung (Brain Heart Infusion) durchgeführt. Die Startkultur wurde mit 0,5 ml einer 12 Stunden alten Kultur angeimpft. Für die Kölbchen, die steigende Epidermin-Konzentrationen enthielten, dienten 0,5 ml der jeweils vorangegangenen, gutgewachsenen Kultur als Impfmaterial. Die Beurteilung des Wachstums erfolgte photometrisch bei 578 nm. […] Als Vergleichswert wurde eine unverdünnte 12 Stunden alte Kultur des literaturbekannten Vergleichsstammes NCIB 11536 ausplattiert. Nach 24 Stunden Inkubation bei 37°C zeigten sich bei der auf 10⁻⁶ verdünnten adaptierten Kultur 94 Einzelkolonien. […] Die resistenten Kolonien wurden selektioniert und auf Platten Medium 2 im Raster ausgestrichen. Nach einem Vortest auf Produktion durch Ausstechen von Stückchen mit 5 mm Durchmesser und Aktivitätstest auf Micrococcus luteus ATCC 9341 wurden produzierende Klone im Flüssigmedium getestet.

A short description of data set [2]: Solubility (characterisation data). The data set is classed as physicochemical. The source says: (§2) Die neue Verbindung Epidermin kann durch folgende Angaben charakterisert werden: • 1. Natur: farbloses Pulver • 2. […] Methanol/Eisessig, löslich in niederen Alkoholen, unlöslich in Chloroform, Aceton, Diethylether, Petrolether. • 3. Farbreaktion auf Kieselgelplatten: Ninhydrin, Chlor/TDM (TDM=4,4'-Bis-(dimethylamino)diphenylmethan), Orcin/Schwefelsäure, Anisaldehyd/Schwefelsäure. Zerstörungsfreier Nachweis im UV-Licht bei 254 nm und durch Sprühen mit Wasser. • 4. Dünnschichtchromatographie: Es wurden Kieselgelfertigplatten 60 F₂₅₄ (Merck) verwendet. System A: Chloroform/Methanol/17% Ammoniak (2/2/1), RF = 0,73 System B: Chloroform/Methanol/17% Ammoniak (70/35/10) RF = 0,30 System C: n-Butanol/Eisessig/Wasser (4/1/1) RF = 0,05 • 5. HPLC : siehe Abb. 7. • 6. […] Molmasse: im Bereich von 2160. Je nach Isolierungsmethoden können als Anionen, z.B. Chlorid, Acetat oder Phosphat, enthalten sein. • 8. Ultraviolettabsorptionsspektrum: In wässriger Lösung langwelliges Maximum bei 267 nm (Abb. 3). • 9. Infrarotabsorptionsspektrum: IR-Spektrum einer Probe in einer Kaliumbromidtablette (Abb. 4). • 10. Kernmagnetische Resonanzspektren ¹H-NMR Spektrum: Abb. 5, ¹³C-NMR-Spektrum: Abb. 6

Data set [3] relates to Staphylococcus epidermidis NCIB 11536. The data set is described as follows: Biophotometer test, Epidermin added in different growth phases. In kind it is cell-based. Here is the method:
(§3) Die Versuche zur Eigenhemmung des Produzentenstammes durch das Antibiotikum und die Untersuchung auf Resistenz der selektionierten Klone wurden im Biophotometer (Eppendorf-Photometer mit Umlaufautomat) durchgeführt.
(§4) Diese Versuche können z.B. im einzelnen wie folgt durchgeführt werden: Jeweils 0,5 ml einer 12 Stunden Kultur von Staphylococcus epidermidis NCIB 11536 bzw. des selektionierten resistenten Stammes DMS 3095 wurden auf frisches Medium überimpft.
(§5) Diese Kulturen ließ man bis zu einer Extinktion von 0,043 bei 578 nm hochwachsen (Küvetten mit einer Schichtdicke von 1 cm) und verteilte sie dann in Portionen zu 7,5 ml in die Küvetten des Biophotometers (Schichtdicke 2 cm).
(§6) Die Dichte der Zellsuspension wurde im Biophotometer auf eine Transmission von 90% eingestellt. Die Inkubation erfolgte bei 37°C und maximaler Belüftung. Epidermin wurde als wässrige Lösung in unterschiedlichen Wachstumsphasen zugegeben.
(§7) Bei beiden Stämmen wurden zu Beginn und in der Mitte der logarithmischen Phase unterschiedliche Epidermin-Konzentrationen zugegeben. Die Ergebnisse sind in Abbildung 13 und 14 dargestellt.

The nature of data set [4]: pH stability, retention of antibiotic activity in aqueous solutions of different pH. In kind it is physicochemical.
Description: as §2
Stabilitätstests und chromatographische Untersuchungen wurden am lyophylisierten Butanolextrakt durchgeführt. Die Inkubation des Extraktes mit wässrigen Lösungen verschiedener pH-Werte ergab ab pH 10 eine starke Abnahme der Aktivität, im Bereich von pH 2-7 ist das Antibiotikum jedoch stabil.

For data set [5], the system named is verschiedener Mikroorganismen. The data set is described as follows: Plate diffusion test, spectrum of activity. Conditions: for Empfindlichkeit verschiedener Mikroorganismen: Plattendiffusionstest, Tabelle 2. The data set is classed as cell-based. The source says:
Während der Herstellung und Isolierung des Epidermins wurde zur biologischen Charakterisierung der Plattendiffusionstest angewandt; nämlich zur Aufnahme des Wirkungsspektrums sowie zur Kontrolle von Produktion, Aufarbeitung und Anreicherung. Der Test wurde, wie bei Zähner und Maas, Biology of antibiotics (Springer Verlag, Berlin-Heidelberg-New York, 1972) beschrieben, in Petrischalen der Firma Greiner, Nürtingen mit Filterrondellen von 6 mm Durchmesser (Macherey & Nagel, Düren) durchgeführt. Die Filterrondellen wurden mit 20 µl der betreffenden Testflüssigkeit benetzt, bei Raumtemperatur auf einer Glasplatte getrocknet und auf die Testplatten aufgelegt. Die Testplatten wurden bei 37°C inkubiert und nach ca. 16 Stunden die Wachstumshemmung ausgewertet. Als Routinetestkeim diente Streptococcus pyogenes ATCC 8668 und, aufgrund seiner problemloseren Handhabung, Micrococcus luteus ATCC 9341. Testplatten mit Streptococcus pyogenes ATCC 8668: Der Testkeim mußte vor Herstellung der Testplatten auf Blutplatten mit Mucin [Medium: 500 ml Agar pH 7,4, 160 ml Mucinlösung (10 Gewichtsprozent), 3,5 ml Glucoselösung (50 Gewichtsprozent), 70 ml Hammelblut] frisch überimpft werden. Nach 15-18 Stunden Inkubation bei 37°C wurde eine Salinesuspension (E₅₇₈ 0,5) hergestellt und 1 ml dieser Suspension zu 100 ml Nährboden (Medium: Pepton 10 g, Fleischextrakt 8 g, Kochsalz 3 g, Na₂HPO₄ 2 g, Glucose 10 g auf 1 l, pH 7,2) pipettiert. Die zu 10 ml Portionen gegossenen Platten waren einige Tage bei 4°C haltbar. Testplatten mit Micrococcus luteus ATCC 9341: Eine Übernachtkultur (Medium: Pepton 10 g, Fleischextrakt 8 g, Kochsalz 3 g, Na₂HPO₄ 2 g, Glucose 10 g auf 1 l, pH 7,2) wurde auf eine Extinktion von 1,0 bei 578 nm verdünnt. Mit 0,25 ml dieser Suspension wurden 100 ml Agar angeimpft und Platten zu 10 ml gegossen. Die Testplatten konnten mehrere Tage bei 4°C aufbewahrt werden. […]

Data set [6] has as its system Propionibakteriumacnes-Stämme. Kind of data set: Plate diffusion test and minimal inhibitory concentration (Tables 2 and 3). In kind it is cell-based, Propionibacterium acnes. The following applies: summary of Tabellen 2 und 3. The source says:
Während der Herstellung und Isolierung des Epidermins wurde zur biologischen Charakterisierung der Plattendiffusionstest angewandt; nämlich zur Aufnahme des Wirkungsspektrums sowie zur Kontrolle von Produktion, Aufarbeitung und Anreicherung. Der Test wurde, wie bei Zähner und Maas, Biology of antibiotics (Springer Verlag, Berlin-Heidelberg-New York, 1972) beschrieben, in Petrischalen der Firma Greiner, Nürtingen mit Filterrondellen von 6 mm Durchmesser (Macherey & Nagel, Düren) durchgeführt. Die Filterrondellen wurden mit 20 µl der betreffenden Testflüssigkeit benetzt, bei Raumtemperatur auf einer Glasplatte getrocknet und auf die Testplatten aufgelegt. Die Testplatten wurden bei 37°C inkubiert und nach ca. 16 Stunden die Wachstumshemmung ausgewertet. Als Routinetestkeim diente Streptococcus pyogenes ATCC 8668 und, aufgrund seiner problemloseren Handhabung, Micrococcus luteus ATCC 9341. Testplatten mit Streptococcus pyogenes ATCC 8668: Der Testkeim mußte vor Herstellung der Testplatten auf Blutplatten mit Mucin [Medium: 500 ml Agar pH 7,4, 160 ml Mucinlösung (10 Gewichtsprozent), 3,5 ml Glucoselösung (50 Gewichtsprozent), 70 ml Hammelblut] frisch überimpft werden. […]

For data set [7], the system named is Vergleichsstamm NCIB 11536. The data set is described as follows: Growth of the comparison strain on plates containing Epidermin. In kind it is cell-based, Staphylococcus epidermidis. Conditions: undiluted 12 h culture on plates with 0,15 mg/ml Epidermin, 48 Stunden. Here is the method:
as §1

The test system of another data set is Zellen. The data set is described as follows: Mode of action (bactericidal, lysis of cells). The data set is classed as cell-based. Conditions: leads to lysis of the cells; same as the culture broth.
The conditions of data set [8]: in vivo.
For data set [9], the system named is resistenter Klon DSM 3095. Kind of data set: Biophotometer test, Epidermin added in different growth phases. The data set is classed as cell-based, Staphylococcus epidermidis. As to the method:
as §3, §4, §5, §6, §7

Ends that are not written are not given here. Where only a bound is given, the exact number is not on record here.

In the case of `CN[C@@H]1[C@H](O)[C@H](NC)[C@H]2O[C@@]3(O)C(=O)C[C@@H](C)O[C@H]3O[C@@H]2[C@H]1O` [Spectinomycin], the “Sonstige Resistenzen” value in [1] is 0,5 mg/ml.

Turning to `[H]/N=C(/N)N[C@H]1[C@H](O)[C@@H](O)[C@H](O[C@@H]2O[C@@H](C)[C@](O)(C=O)[C@H]2O[C@@H]2O[C@@H](CO)[C@H](O)[C@@H](O)[C@@H]2NC)[C@@H](N/C(N)=N\[H])[C@@H]1O` [Streptomycin], in data set [1], the “Sonstige Resistenzen” value was no more than 1 mg/mL.

As for “Epidermin: ribosomal synthetisiertes, heterodet tetracyclisches Dokosapeptidantibiotikum aus Staphylococcus epidermidis DSM 3095 (IASKFICTPGCAKTGSFNSYCC; also: heterodetic tetracyclic lantibiotic, rings and modified residues not placed; UniProt P08136 31-52, looked up)”, the Löslichkeit entry in data set [2] (in Chloroform, Aceton, Diethylether, Petrolether) is on record as “unlöslich”; in [2] (in Mischungen aus Wasser/Eisessig bzw. Methanol/Eisessig) it was “Sehr gut löslich”; in data set [2] (in niederen Alkoholen), “löslich”. The Wachstumsverlauf result in data set [3] (Abb. 13 Kurve 2: 10 µg/ml zu Beginn der logarithmischen Phase) is given as “Lyse”; in [3] (Abb. 13 Kurve 3: 10 µg/ml in der Mitte der logarithmischen Phase), “Lyse”; in data set [3] (Abb. 13 Kurve 4: 2,5 µg/ml in der Mitte der logarithmischen Phase) it was “Wachstumsverzögerung”; in data set [9] (Abb. 14 Kurve 2: 120 µg/ml zu Beginn der logarithmischen Phase) it was “geringfügige Wachstumsverzögerung”; in data set [9] (Abb. 14 Kurve 3: 360 µg/ml in der Mitte der logarithmischen Phase), “Wachstumsverzögerung”. Moreover, the Einzelkolonien in data set [1] (adapted culture diluted to 10⁻⁶, plate with 0,5 mg/ml Epidermin, 24 Stunden 37°C) was determined as 94. The Wachstum entry is recorded as “noch gut gewachsen” in [1] (adapted culture, 1,0 mg/ml Epidermin in Flüssigkultur) and “wuchs auch nach 48 Stunden Inkubation nicht” in data set [7]. Besides, in data set [1] (against the Epidermin it produces itself), the Resistenz entry was “resistent”. Moreover, the Epidermin-Resistenz in [1] (resistance shown up to this concentration) is no more than 1 mg/mL. Besides, the Stabilität result in [4] (bei höheren pH-Werten (above pH 7)) was “starker Aktivitätsabfall”; in data set [4] (pH=2 bis pH=7), “Stabil”; in data set [4] (tested on lyophilised butanol extract, pH 2-7), “stabil”. Further, the “Empfindlichkeit verschiedener Mikroorganismen” value in [5] is reported as “fast ausschließlich auf grampositive Bakterien wirken”. The “antibakterielle Wirksamkeit” value in data set [5] (especially good against a whole series of gram-positive bacteria) is “sehr gute antibakterielle Wirksamkeit”. Also, in data set [6], the Wirksamkeit entry is recorded as “sehr gute Wirksamkeit”. In addition, in the data set with Zellen, the Wirkung entry is “bakterizide Wirkung”. Also, in data set [8], the Verträglichkeit result is reported as “sehr gut verträglich”. The “toxische Wirkungen” value in [8] was “keine toxischen Wirkungen”. Moreover, the Lyse entry in data set [9] (all concentrations tested so far) is listed as “keine Lyse”.

Consider “Nisin (ITSISLCTPGCKTGALMGCNMKTATCHCSIHVSK; also: lantibiotic: thioether rings and dehydro residues, not placed; UniProt P13068 24-57, looked up) [Vergleichsantibiotikum (vgl. DE-A-2 000 818 bzw. GB-B-1 182 156), Aktivität von 40000 units, reference compound]”, for which the “Empfindlichkeit verschiedener Mikroorganismen” value in data set [5] (Nisin mit einer Aktivität von 40000 units) is “fast ausschließlich auf grampositive Bakterien wirken”.
